Assay [1] relates to rats fed a high fat diet. In words: Glucose tolerance test (GTT): plasma insulin levels. In kind it is in vivo. The protocol: (§1) This example studied the combined effects of the compound of formula (I) and sitagliptin, i.e., a DPP-IV inhibitor, on plasma GLP-1 levels and glucose tolerance as evaluated in rats fed a high fat diet.
(§2) After the rats were fasted for 24 hours, either the compound of formula (I) (30 mg/kg) or vehicle (0.5% MC) was dosed orally. The rats were immediately fed with a high-fat diet for six hours and fasted overnight. Glucose tolerance tests (GTTs) were performed 30 minutes after dosing either sitagliptin or vehicle (0.5% MC). Dosing for each group is described in Tables 1 and 2 below.
(§3) At the start of the GTT, blood was collected to measure plasma GLP-1. The plasma glucose and insulin concentrations were measured before and after loading with the glucose solution. For the preparation of the glucose solution, glucose was diluted in saline at a concentration of 0.4 g/mL.
(§4) For the GTT, the rats were fasted overnight after six hours feeding. On the following day, 600-700 μL of blood were collected from the tail vein into tubes containing a DPP-IV inhibitor, aprotinin, and EDTA. Thereafter, a glucose solution at a dose of 1 g/2.5 mL/kg was loaded intraperitoneally. At 10, 30, 60, and 120 minutes after loading the glucose solution, 200-300 μL of blood were collected from the tail vein into tubes containing heparin. The blood was centrifuged at 10,000×g and 4° C. for five minutes to obtain the plasma.

The test system of assay [2] is rats fed a high fat diet. The assay is described as follows: Glucose tolerance test (GTT): plasma glucose levels. It counts as in vivo. The protocol: as §1, §2, §3, §4
The nature of assay [3]: Food consumption, body weight gain and body weight in rats fed a high fat diet. In kind it is in vivo. The following applies: Mean ± S.E. (n = 8). As for the experimental part: Forty-four eight week old male rats (Charles River Laboratories Japan, Inc.) were used for the experiment. Body weights and food weight were measured six days before and on the day before the dosing of the compound of formula (I). Body weight gain and food consumption were calculated for this period. Animals were fasted for 24 hours the day before dosing with the compound of formula (I). Using the body weights on the day of the dosing, body weight gain and food consumption as indicators, 32 rats were selected from those closest to the mean values. The rats were assigned to four groups (control, compound of formula (I) only, DPP-IV inhibitor only, and combination of compound of formula (I) and DPP-IV inhibitor) with eight animals in each group. One-way analysis of variance was performed using SAS Preclinical Package Version 5.0 and SAS System Version 8.2 (SAS Institute Japan Co., Ltd.) to verify that no significant intergroup differences were present after group allocation.
as §2
Food consumption was calculated according to the following formula: food consumption (g)=food weight before feeding (g)−food weight after feeding (g). Body weight gain was calculated according the following formula: body weight gain (g)=body weight after feeding (g)-body weight before feeding (g). There were no significant differences between the groups in food consumption and body weight gain for six hours after dosing, and in body weight at the start of GTT (Table 3).

The test system of the next assay is plasma GLP-1. In words: Plasma GLP-1 level at the start of the GTT (GLP-1 (Active) ELISA). In kind it is in vivo, rats. The protocol:
as §1, §2, §3
For the GTT, the rats were fasted overnight after six hours feeding. On the following day, 600-700 μL of blood were collected from the tail vein into tubes containing a DPP-IV inhibitor, aprotinin, and EDTA. Thereafter, a glucose solution at a dose of 1 g/2.5 mL/kg was loaded intraperitoneally. […]
After 200 μL of plasma sampled before the glucose loading were added with […] of ethanol, the solution was thoroughly mixed. […] The GLP-1 concentration was measured by the ELISA method using a GLP-1 (Active) ELISA kit.
(In general: In an ELISA, binding on a coated surface is turned into a signal by an enzyme label.)

Where [4] appears, read: 0 min after glucose loading (1 g/kg ip), compound of formula (I) 30 mg/kg PO, sitagliptin 10 mg/kg PO.
Setting [5] is: six hours high-fat feeding after dosing, compound of formula (I) 30 mg/kg PO.

For `N[C@@H](CC(=O)N1CCn2c(nnc2C(F)(F)F)C1)Cc1cc(F)c(F)cc1F` [sitagliptin], the “Plasma Insulin Level” value in the assay with rats fed a high fat diet [1] (setting [4]) came out at 2.350 ± 0.439 ng/mL; in the assay on rats fed a high fat diet [1] (10 min after glucose loading), 4.968 ± 0.562 ng/mL; in the assay on rats fed a high fat diet [1] (30 min after glucose loading) it was 4.595 ± 0.675 ng/mL; in the assay on rats fed a high fat diet [1] (60 min after glucose loading), 3.253 ± 0.749 ng/mL; in the assay with rats fed a high fat diet [1] (120 min after glucose loading) it was 3.046 ± 0.435 ng/mL. Besides, the “AUC of Plasma Insulin Level” value in the assay on rats fed a high fat diet [1] (during the GTT, 0-120 min) was 438.898 ± 72.779 ng·min/mL. The “Plasma insulin levels during the GTT, in words” value with rats fed a high fat diet [1] (versus control group) is recorded as “higher”. Moreover, the “Plasma Glucose Level” value in the assay with rats fed a high fat diet [2] (setting [4]) is given as 149 ± 6 mg/dL; with rats fed a high fat diet [2] (10 min after glucose loading), 264 ± 16 mg/dL; with rats fed a high fat diet [2] (30 min after glucose loading) it was 255 ± 12 mg/dL; in the assay on rats fed a high fat diet [2] (60 min after glucose loading), 185 ± 8 mg/dL; in the assay on rats fed a high fat diet [2] (120 min after glucose loading), 157 ± 5 mg/dL. For the same molecule, the “Plasma glucose levels in the GTT, in words” value in the assay on rats fed a high fat diet [2] (at 60 minutes after glucose loading, versus control group) is given as “significantly decreased”. Further, in the assay with rats fed a high fat diet [2] (during the GTT, 0-120 min), the “AUC of Plasma Glucose Level” value worked out at 24095 ± 981 mg·min/dL. Also, the “AUC for the glucose levels during the GTT, in words” value in the assay on rats fed a high fat diet [2] (versus control group) is “lower than that for the control group, although there were no statistically significant differences”. The “Body Weight” value in assay [3] (before GTT) was 352.7 ± 6.9 g. In addition, the “Body Weight Gain” value in assay [3] (setting [5]) is 15.5 ± 1.2 g. Besides, the “Food Consumption” value in assay [3] (setting [5]) stood at 15.2 ± 1.3 g. Moreover, in the assay on plasma GLP-1 (at the start of the GTT, compound of formula (I) 30 mg/kg PO day before, sitagliptin 10 mg/kg PO 30 min before GTT, Mean ± S.E. (n = 8)), the “Plasma GLP-1 Level” value stood at 1.800 ± 0.270 pmol/L. The “Plasma GLP-1 levels prior to glucose loading, in words” value with plasma GLP-1 (versus control group) is “significantly higher”.

For the origin of these results see patent US20130317034A1, “COMBINATION THERAPY FOR TREATING DIABETES” (Japan Tobacco Inc., priority 2010, published 2013).
